Molecular target: T1, C-X-C chemokine receptor type 3 (Homo sapiens, UniProt P49682)
T1 sequence (P49682 whole entry): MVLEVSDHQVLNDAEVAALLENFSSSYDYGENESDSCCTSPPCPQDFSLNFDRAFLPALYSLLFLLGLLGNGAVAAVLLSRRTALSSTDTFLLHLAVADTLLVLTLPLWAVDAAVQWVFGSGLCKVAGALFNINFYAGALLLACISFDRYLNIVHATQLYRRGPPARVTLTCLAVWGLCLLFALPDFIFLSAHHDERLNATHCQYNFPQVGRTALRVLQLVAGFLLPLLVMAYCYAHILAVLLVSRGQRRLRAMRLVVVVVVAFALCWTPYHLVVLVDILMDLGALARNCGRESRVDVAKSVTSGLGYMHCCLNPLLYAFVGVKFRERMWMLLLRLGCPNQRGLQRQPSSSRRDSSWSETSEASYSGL
Assay: Competition Radioligand Binding Assay: Competition radioligand binding assays were performed to determine the in vitro potency of the newly synthesized, unlabeled test compounds to displace the specific binding of the radiolabelled endogenous chemokine, 125I-CXCL10, from the human CXCR3-A receptor. IC50 values were determined for the test compounds and used to explore the structure-activity relationships (SAR).

IC50 [nM] | SMILES
1200 | CN1CC(=O)N(CCOc2ccc(CN(C[C@H]3CC[C@H](C(=O)O)CC3)C3CCc4cc(Cl)ccc43)cc2Cl)C1=O (some centres undefined)
81 | COc1cc(CN(C[C@H]2CC[C@H](C(=O)O)CC2)C(C)c2ccc3c(c2)CCO3)ccc1CCCN1C(=O)CCC1=O (some centres undefined)
431 | Cc1cc(CN(C[C@H]2CC[C@H](C(=O)O)CC2)C(C)c2ccc(Cl)c(Cl)c2)ccc1OCCN1C(=O)CN(C)C1=O (some centres undefined)
58 | COc1cc(CN(C2CC(C(=O)O)C2)C(C)c2ccc3c(c2)CCO3)ccc1OCCN1C(=O)CCC1=O (centres undefined)

Reference: ChEMBL document CHEMBL3638409, “Cycloalkane carboxylic acid derivatives as CXCR3 receptor antagonists” (2015)
